According to the supplement of paper PMC10307832:

Tests used:
Assay in all cases: relative viability (nuclei count vs DMSO), 5 days (fraction); higher = more cells survive
Zosuquidar + Decitabine = compound: O[C@@H](COc1cccc2ncccc12)CN1CCN([C@@H]2c3ccccc3[C@@H]3[C@H](c4ccccc42)C3(F)F)CC1 [Zosuquidar] + Nc1ncn([C@H]2C[C@H](O)[C@@H](CO)O2)c(=O)n1 [Decitabine] (partner 2 µM)
Method in brief: (§1)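 Lung cancer cell lines in 1536-well plates got either a single drug or a fixed anchor-drug dose together with five library-drug doses (not always all listed) in √10 steps, by pin tool, on the day after seeding. Nuclei were counted after 5 days, and relative viability is the treated-to-vehicle ratio of nuclei counts. Values are medians of duplicate plates.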

Zosuquidar + AZD7762 = compound: O[C@@H](COc1cccc2ncccc12)CN1CCN([C@@H]2c3ccccc3[C@@H]3[C@H](c4ccccc42)C3(F)F)CC1 [Zosuquidar] + NC(=O)Nc1cc(-c2cccc(F)c2)sc1C(=O)N[C@H]1CCCNC1 [AZD7762] (partner 0.2 µM)
Method in brief: as §1

Zosuquidar + Vorinostat = compound: O[C@@H](COc1cccc2ncccc12)CN1CCN([C@@H]2c3ccccc3[C@@H]3[C@H](c4ccccc42)C3(F)F)CC1 [Zosuquidar] + O=C(CCCCCCC(=O)Nc1ccccc1)NO [Vorinostat] (partner 1 µM)
Method in brief: as §1

[1] = compound: COc1cc2nccc(Oc3ccc(NC(=O)C4(C(=O)Nc5ccc(F)cc5)CC4)cc3)c2cc1OC [Cabozantinib] + CC1(C)CCC(c2ccc(Cl)cc2)=C(CN2CCN(c3ccc(C(=O)NS(=O)(=O)c4ccc(N[C@H](CCN5CCOCC5)CSc5ccccc5)c(S(=O)(=O)C(F)(F)F)c4)cc3)CC2)C1 [Navitoclax] (partner 0.5 µM)
Method in brief: as §1

Cell Line	relative viability (Zosuquidar + Decitabine; first compound 0.01 µM)	relative viability (Zosuquidar + Decitabine; first compound 0.03162 µM)	relative viability (Zosuquidar + Decitabine; first compound 0.1 µM)	relative viability (Zosuquidar + Decitabine; first compound 0.3162 µM)	relative viability (Zosuquidar + Decitabine; first compound 1 µM)	relative viability (Zosuquidar + AZD7762; first compound 0.01 µM)	relative viability (Zosuquidar + AZD7762; first compound 0.03162 µM)	relative viability (Zosuquidar + AZD7762; first compound 0.1 µM)	relative viability (Zosuquidar + AZD7762; first compound 0.3162 µM)	relative viability (Zosuquidar + AZD7762; first compound 1 µM)	relative viability (Zosuquidar + Vorinostat; first compound 0.01 µM)	relative viability (Zosuquidar + Vorinostat; first compound 0.03162 µM)	relative viability (Zosuquidar + Vorinostat; first compound 0.1 µM)	relative viability (Zosuquidar + Vorinostat; first compound 0.3162 µM)	relative viability (Zosuquidar + Vorinostat; first compound 1 µM)	relative viability ([1]; first compound 0.06325 µM)	relative viability ([1]; first compound 0.2 µM)	relative viability ([1]; first compound 0.6325 µM)	relative viability ([1]; first compound 2 µM)	relative viability ([1]; first compound 0.02 µM)
NCI-H2405	0.737	0.777	0.734	0.767	0.758	0.691	0.714	0.766	0.739	0.539	1.07	0.963	1.01	1.05	0.31	1.09	0.881	0.787	0.856	–
NCI-H1944	0.365	0.454	0.469	0.453	0.439	0.496	0.565	0.479	0.62	0.511	0.524	0.528	0.543	0.672	0.535	1.08	0.972	0.969	0.921	–
NCI-H322M	0.598	0.548	0.666	0.632	0.625	0.586	0.507	0.495	0.56	0.49	0.916	1.08	0.652	0.896	0.731	1.4	–	1.2	1.19	1.24
NCI-H2085	0.556	0.586	–	0.653	0.55	0.983	1.04	–	1.03	0.99	0.807	0.753	–	0.907	0.767	1.17	1.15	1.21	1.06	1.16
RERF-LC-KJ	0.717	0.727	0.691	0.776	0.691	1.02	0.882	0.895	1.05	0.811	0.728	0.707	0.694	0.772	0.683	1.08	0.948	0.866	0.921	1.06
NCI-H1355	0.388	0.393	0.355	0.382	0.401	0.777	0.778	0.733	0.797	0.86	0.621	0.644	0.602	0.652	0.669	0.974	0.967	0.893	0.861	0.96
PC-14	0.224	0.176	0.212	0.195	0.205	0.3	0.372	0.314	0.363	0.344	0.826	0.673	0.721	0.831	0.761	1.09	–	0.931	0.997	1.06
NCI-H1755	0.672	0.663	0.716	0.728	0.708	0.399	0.461	0.398	0.497	0.436	0.657	0.883	0.694	0.845	0.729	1.07	0.972	0.87	0.807	1
NCI-H1651	0.644	0.685	0.483	0.617	0.588	0.459	0.476	0.415	0.403	0.384	0.576	0.604	0.471	0.607	0.501	1.03	1.15	0.974	0.928	1.19
NCI-H1395	0.707	0.765	–	0.765	0.773	0.398	0.373	–	0.409	0.429	0.746	0.783	–	1	0.698	1.1	1.41	1.12	1.12	1.13
HCC-15	0.64	0.575	0.599	0.711	0.635	1.11	1.27	1.17	1.18	1.16	0.844	0.745	0.716	0.894	0.877	0.739	0.77	0.67	0.645	0.743
PC-3 [JPC-3]	0.886	0.925	0.791	0.859	0.79	0.78	0.9	0.648	0.836	0.524	0.817	0.91	0.589	0.916	0.416	0.929	–	0.784	0.868	0.829
HOP-62	0.215	0.223	0.25	0.203	0.21	0.619	0.771	0.512	0.802	0.631	0.528	0.624	0.585	0.836	0.593	0.987	1.07	1.05	1.13	1.13
NCI-H460	0.459	0.448	0.335	0.55	0.44	0.54	0.571	0.6	0.607	0.509	0.658	0.747	0.687	0.776	0.739	1.39	1.09	1.11	1.24	1.46
NCI-H1793	0.536	–	–	0.648	0.488	0.519	–	–	0.516	0.692	0.745	–	–	1.06	0.629	0.514	0.267	0.235	0.29	0.477
NCI-H727	0.823	0.906	–	0.794	0.887	0.502	0.573	–	0.714	0.405	1.12	1.32	–	1.11	1.29	0.408	0.463	0.441	0.507	0.355
NCI-H838	0.488	0.49	0.486	0.496	0.502	0.939	0.997	0.898	0.948	0.904	0.744	0.793	0.791	0.755	0.806	1.19	1.12	1.03	1.03	1.21
